# Assay results published in a melting point compilation (Tetko et al.; mined from patent text by program, amines drawn as free bases though some values may be those of a salt).
row,Compound,melting point
1,COc1ccc(C(C#N)Nc2ccc(S(C)(=O)=O)cc2)cc1 (stereo unspecified),131 to 132 °C
2,O=C1C(=O)N(CCCN2CCN(C(c3ccccc3)(c3ccccc3)c3ccccc3)CC2)c2ccccc21,145 to 149 °C
3,CC(O)Cn1c(COCc2ccccc2)nc(C(C)C)c1Sc1cc(Cl)cc(Cl)c1 (stereo unspecified),155 to 157 °C
4,CCCCCCCCCCCCCCCCCCNC(=O)OCC(CNS(=O)(=O)CCCI)NC(=O)NC (stereo unspecified),87 to 89 °C
5,CCCCCCCCCCCCc1cc(N)no1,79.5 to 81 °C
6,Cc1oc(-c2ccco2)nc1CCOc1ccc(CC2SC(=O)NC2=O)cn1 (stereo unspecified),160 to 162 °C
7,COC(=O)C=CC1C(C(=O)OC(C#N)c2cccc(Oc3ccccc3)c2)C1(C)C (stereo unspecified),98 °C
8,CCOC(=O)c1cn(CC)c2cc(Cl)c(Br)cc2c1=O,166 °C
9,CCCc1c(SCCCOc2ccc3c(=O)cc(CCC(=O)O)oc3c2CCC)ccc(C(C)=O)c1N,153 to 155 °C
10,CSCc1c[nH]c(=O)[nH]c1=O,239 to 241 °C
11,COc1cc2ncc(C#N)c(Nc3c(C)cccc3O)c2cc1OC,245 to 247 °C
12,CCCCc1nc(C(O)(CC)CC)c(C(=O)OCC)[nH]1,63 to 64 °C
13,Cc1cc(NSc2ccccc2[N+](=O)[O-])ccc1Oc1ncc(Cl)cn1,74 to 85 °C
14,CC(=O)Nc1ccc(Cl)cc1S(=O)(=O)CC#N,174 °C
15,CCCOc1ccc(CO)cc1N,94 to 95 °C
16,COc1ccc(-c2ccc(C#N)cc2)cc1C(C)=O,102 °C
17,CCCCCCO[C@H](C)C(=O)Oc1ccc(C(=O)O)cc1,67 to 72 °C
18,Cc1ncsc1CCOS(N)(=O)=O,80 to 83 °C
19,CN(C)c1ncc(C(=O)CNCC(O)c2cccc(OC(=O)C(C)(C)C)c2)c(-c2ccccc2)n1 (stereo unspecified),145 to 146 °C
20,COc1cc(O)nc(C2CC2)n1,186 °C
21,COc1ccc(C(C)(O)c2cccc(OCc3nc(-c4ccccc4)oc3C)c2)c(OCCOC(C)=O)c1 (stereo unspecified),144 to 145 °C
22,COC(=O)c1ccc(N)c(NC(=O)c2ccc(C(C)(C)C)cc2)c1,175 °C
23,O=C(O)[C@H](Cc1ccccc1)N[C@@H](Cc1c[nH]c2ccccc12)C(=O)OCc1ccccc1,147 to 150 °C
24,C=CCOc1ccc(C(=O)N[C@@H](C)c2cccc3ccccc23)cc1,141 to 143 °C
25,Cc1cc(C)cc(-c2cc(O)c(SCCc3ccccc3)c(=O)o2)c1,155 to 157 °C
26,CC(C)(C)OC(=O)NCCCC(=O)NCCC(=O)OCc1ccccc1,54 to 55 °C

row,Compound,melting point
1,CCCCCCCCCC(=O)c1cn(CCCC(=O)O)c2ccccc12,89 to 90 °C
2,CCCCn1c(=O)c2c(NC)n[nH]c2n(Cc2ccccc2)c1=O,282 to 284 °C
3,CC(=CN1C(=O)c2ccccc2C1=O)c1ccco1,136 to 137 °C
4,CS(=O)(=O)CC(=O)N[C@H]1CC[C@H](CCN2CCN(c3nccc4c3OCC4)CC2)CC1,187 °C
5,CSc1nc(-c2cc(N)ccc2C)c2c(n1)N(c1c(F)cccc1F)C(=O)NC2,122 to 125 °C
6,C[C@@H](n1cnc2cc(N3CCN(C)CC3)c(F)cc2c1=O)[C@](O)(Cn1cncn1)c1ccc(F)cc1F,106 to 112 °C
7,COC(=O)c1ccc(Cl)cc1SCCC(=O)O,133 to 136 °C
8,COc1cc2c(cc1Nc1ncc(Cl)c(Nc3ccccc3S(=O)(=O)N3CCCC3)n1)CCN(CCO)CC2,110 °C
9,Cc1nc(C(F)(F)F)ccc1C(=O)C1=C(O)C(C)(C)CCC1=O,75 to 77 °C
10,COc1ccc(CN(Cc2ccco2)S(=O)(=O)c2ccc(C(=O)O)cc2)cc1,151 to 152 °C
11,CCCCCCc1ccc(-c2ncc(C#N)c(Cl)n2)cc1,80.3 to 80.5 °C
12,COc1ccc(C2(C#Cc3cc(N4CN=C(C)O4)cs3)CCC(=O)CC2)cc1OC1CCCC1,90 to 91 °C
13,c1ccc(N2CCOCC2)c(N=C2CCCCN2)c1,89 to 90 °C
14,O=C(Oc1ccc(Cl)cc1)c1c2ccccc2nc2ccccc12,170 °C
15,Cn1cnc2c1c1n[nH]c(=S)n1c(=O)n2Cc1ccccc1,278 °C
16,CCCCCCCCCCCCCCCCCc1cc(O)c(CC)c(=O)o1,101 to 102 °C
17,CCCCc1nc2cccc(C(=O)O)c2n1Cc1ccc(-c2c(-c3nnn[nH]3)oc3ccccc23)cc1,194 to 195 °C
18,OCC1CCN(c2nc3ccccc3s2)CC1,76 to 80 °C
19,OCC1CNCCC1c1ccc(F)cc1 (stereo unspecified),123 to 124 °C
20,CSc1c(O[C@H]2CC[C@@H](N3C(=O)c4ccccc4C3=O)CC2)ccc2[nH]ncc12,211 to 212 °C
21,COCCOCN1C(C)=C(C(=O)O)[C@@H](c2cccc([N+](=O)[O-])c2)C(C(=O)OC)=C1C,124 °C
22,CC(C)c1nn(-c2ccc(C(F)(F)F)cn2)cc1C=O,89 to 90 °C
23,CSc1ccc(-c2nn(Cc3ccccc3)c(=O)cc2-c2ccc(F)cc2)cc1,141 °C
24,CNc1c(S(=O)(=O)C(F)(F)F)c(-c2ncon2)nn1-c1c(Cl)cc(C(F)(F)F)cc1Cl,156 to 158 °C
25,COc1ccccc1C=C1N=C(c2ccccc2)OC1=O,159 to 161 °C
